The source of these data is PubChem BioAssay AID330 (DTP/NCI, 2004).

Values joined by “and” are separate entries in the source; they are usually repeats but may differ in a detail not shown here. Equal entries are not always repeated. Toxic doses and inconclusive results are not listed.

This assay relates to P388 leukemia ip, CD2F1 mice, survival T/C. Description: NCI In Vivo Anticancer Drug Screen. Data for tumor model P388 Leukemia (intraperitoneal) in CD2F1 (CDF1) mice. The following applies: endpoint: median survival time, higher = longer survival. A digest of the protocol: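 Mice carrying the transplanted tumor received test compound or vehicle. Survival was recorded in each group, and the value is the treated-group measurement divided by that of the vehicle-treated control group.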

Where [1] appears, read: dose: 12.5 mg/kg/injection, schedule: Q01DX009 (ip), vehicle: saline.
Where [2] appears, read: dose: 25.0 mg/kg/injection, schedule: Q01DX009 (ip), vehicle: saline.
The mark [3] stands for this setting: dose: 50.0 mg/kg/injection, schedule: Q01DX009 (ip), vehicle: saline.
The mark [4] stands for this setting: dose: 6.25 mg/kg/injection, schedule: Q01DX009 (ip), vehicle: saline with Tween-80.
The mark [5] stands for this setting: dose: 12.5 mg/kg/injection, schedule: Q01DX009 (ip), vehicle: saline with Tween-80.
Setting [6] is: dose: 25.0 mg/kg/injection, schedule: Q01DX009 (ip), vehicle: saline with Tween-80.
Setting [7] is: dose: 50.0 mg/kg/injection, schedule: Q01DX009 (ip), vehicle: saline with Tween-80.
The mark [8] stands for this setting: dose: 100.0 mg/kg/injection, schedule: Q01DX009 (ip), vehicle: saline.
Where [9] appears, read: dose: 200.0 mg/kg/injection, schedule: Q01DX009 (ip), vehicle: saline.
The mark [10] stands for this setting: dose: 50.0 mg/kg/injection, schedule: Q01DX009 (ip), vehicle: Klucel (hydroxypropylcellulose) (HPC).
Where [11] appears, read: dose: 50.0 mg/kg/injection, schedule: Q01DX005 (ip), vehicle: Klucel (hydroxypropylcellulose) (HPC).
Where [12] appears, read: dose: 100.0 mg/kg/injection, schedule: Q01DX005 (ip), vehicle: Klucel (hydroxypropylcellulose) (HPC).
Where [13] appears, read: dose: 200.0 mg/kg/injection, schedule: Q01DX005 (ip), vehicle: Klucel (hydroxypropylcellulose) (HPC).
The mark [14] stands for this setting: dose: 100.0 mg/kg/injection, schedule: Q01DX009 (ip), vehicle: saline with Tween-80.
[15] abbreviates: dose: 100.0 mg/kg/injection, schedule: Q04DX003 (ip), vehicle: saline with Tween-80.
Setting [16] is: dose: 200.0 mg/kg/injection, schedule: Q04DX003 (ip), vehicle: saline with Tween-80.
The mark [17] stands for this setting: dose: 400.0 mg/kg/injection, schedule: Q04DX003 (ip), vehicle: saline with Tween-80.

`CCC1(C)N=C(N)Nc2nc3cc(C)c(C)cc3n21` (stereo unspecified): the T/C is, setting by setting: under setting [1], 92 % of control; under setting [2], 91 % of control; under setting [3], 92 % of control and 94 % of control.
Take `COc1ccc(Cc2cc3c(cc2OC)OCO3)c(OC)c1`: the T/C was 100 % of control (dose: 60.0 mg/kg/injection, schedule: Q01DX005 (ip), vehicle: saline with Tween-80); 108 % of control (dose: 120.0 mg/kg/injection, schedule: Q01DX005 (ip), vehicle: saline with Tween-80); 112 % of control (dose: 240.0 mg/kg/injection, schedule: Q01DX005 (ip), vehicle: saline with Tween-80).
With `COc1ccc(CN(CCc2ccc(O)cc2)C(=O)C(F)(F)F)cc1O`, the T/C runs as follows: under setting [4], 99 % of control; under setting [5], 110 % of control; under setting [6], 107 % of control; under setting [7], 100 % of control.
For `CCOc1ccccc1N=Nc1c(C)nn(C(=S)SC)c1OCC`, the T/C is 91 % of control (dose: 30.0 mg/kg/injection, schedule: Q01DX005 (ip), vehicle: Klucel + Tween-80); 88 % of control and 95 % of control (dose: 60.0 mg/kg/injection, schedule: Q01DX005 (ip), vehicle: Klucel + Tween-80); 86 % of control (dose: 120.0 mg/kg/injection, schedule: Q01DX005 (ip), vehicle: Klucel + Tween-80).
Regarding `NC(=O)C1CNCC(C(N)=O)C1` (stereo unspecified), the T/C is 100 % of control and 98 % of control under setting [3]; 98 % of control under setting [8]; 99 % of control under setting [9].
Regarding `CC1OC(Nc2ncnc3nc[nH]c23)C(O)C(O)C1NC(=O)CNC(=O)CCCCCCCCCCCC(C)(C)C` (stereo unspecified), the T/C (dose: 0.25 mg/kg/injection, schedule: Q01DX009 (ip), vehicle: distilled water + Tween-80) is 111 % of control and 117 % of control; the T/C (dose: 0.5 mg/kg/injection, schedule: Q01DX009 (ip), vehicle: distilled water + Tween-80) was 118 % of control; the T/C (dose: 1.0 mg/kg/injection, schedule: Q01DX009 (ip), vehicle: distilled water + Tween-80) was 166 % of control; the T/C (dose: 2.0 mg/kg/injection, schedule: Q01DX009 (ip), vehicle: distilled water + Tween-80) was 117 % of control; the T/C (dose: 4.0 mg/kg/injection, schedule: Q01DX009 (ip), vehicle: distilled water + Tween-80) is 108 % of control and 91 % of control.
As to `CCCCCCC1(/C=C\c2ccc(Cl)cc2Cl)OCCO1`, the T/C under setting [10] was 103 % of control; the T/C (dose: 100.0 mg/kg/injection, schedule: Q01DX009 (ip), vehicle: Klucel (hydroxypropylcellulose) (HPC)) was 110 % of control; the T/C (dose: 200.0 mg/kg/injection, schedule: Q01DX009 (ip), vehicle: Klucel (hydroxypropylcellulose) (HPC)) was 101 % of control.
`Cc1cc2c(oc(=O)c3cc(C)sc32)s1`: the T/C runs as follows: under setting [11], 99 % of control; under setting [12], 103 % of control; under setting [13], 97 % of control.
In the case of `COc1c(Cl)c(=O)oc2ccc(Cl)cc12`, the T/C (dose: 6.25 mg/kg/injection, schedule: Q01DX009 (ip), vehicle: Klucel (hydroxypropylcellulose) (HPC)) was 104 % of control; the T/C (dose: 12.5 mg/kg/injection, schedule: Q01DX009 (ip), vehicle: Klucel (hydroxypropylcellulose) (HPC)) was 99 % of control; the T/C (dose: 25.0 mg/kg/injection, schedule: Q01DX009 (ip), vehicle: Klucel (hydroxypropylcellulose) (HPC)) is 97 % of control; the T/C under setting [10] was 104 % of control.
For `O=C1C=CC2(C=C1)N=C(c1ccccc1)C=C2c1ccccc1`, the T/C by setting is: (dose: 50.0 mg/kg/injection, schedule: Q01DX005 (ip), vehicle: saline with Tween-80) 101 % of control; (dose: 100.0 mg/kg/injection, schedule: Q01DX005 (ip), vehicle: saline with Tween-80) 97 % of control; (dose: 200.0 mg/kg/injection, schedule: Q01DX005 (ip), vehicle: saline with Tween-80) 93 % of control.
Consider `S=c1[nH]c2cc(Cl)ccc2s1`, for which the T/C is 109 % of control under setting [14], 100 % of control under setting [15], 104 % of control under setting [16] and 109 % of control under setting [17].
Consider `CCN(CCN1C(=O)COCC1=O)c1ccccc1`, for which the T/C was 105 % of control under setting [15], 104 % of control under setting [16] and 96 % of control under setting [17].
Take `NC(N)=NS(=O)(=O)c1ccc(N=Cc2c3ccccc3nc3ccccc23)cc1`: the T/C reads like this: (dose: 12.5 mg/kg/injection, schedule: Q04DX002 (ip), vehicle: Klucel (hydroxypropylcellulose) (HPC)) 99 % of control; (dose: 25.0 mg/kg/injection, schedule: Q04DX002 (ip), vehicle: Klucel (hydroxypropylcellulose) (HPC)) 94 % of control; (dose: 50.0 mg/kg/injection, schedule: Q04DX002 (ip), vehicle: Klucel (hydroxypropylcellulose) (HPC)) 96 % of control; (dose: 100.0 mg/kg/injection, schedule: Q04DX002 (ip), vehicle: Klucel (hydroxypropylcellulose) (HPC)) 96 % of control; (dose: 200.0 mg/kg/injection, schedule: Q04DX002 (ip), vehicle: Klucel (hydroxypropylcellulose) (HPC)) 92 % of control; (dose: 400.0 mg/kg/injection, schedule: Q04DX002 (ip), vehicle: Klucel (hydroxypropylcellulose) (HPC)) 96 % of control.
`N#CCCNc1ccc(F)cc1`: the T/C was 100 % of control under setting [3], 109 % of control under setting [8] and 104 % of control under setting [9].
Regarding `Cc1ccc(S(=O)(=O)N/N=C/c2ccoc2)cc1`, the T/C is 100 % of control (dose: 12.5 mg/kg/injection, schedule: Q01DX005 (ip), vehicle: distilled water + Tween-80); 102 % of control (dose: 25.0 mg/kg/injection, schedule: Q01DX005 (ip), vehicle: distilled water + Tween-80); 93 % of control (dose: 50.0 mg/kg/injection, schedule: Q01DX005 (ip), vehicle: distilled water + Tween-80); 102 % of control (dose: 100.0 mg/kg/injection, schedule: Q01DX005 (ip), vehicle: distilled water + Tween-80); 100 % of control (dose: 200.0 mg/kg/injection, schedule: Q01DX005 (ip), vehicle: distilled water + Tween-80).
As to `CCCCCCCCCCCCCCN1CCOCC1`, the T/C under setting [1] was 94 % of control; the T/C under setting [2] was 100 % of control; the T/C under setting [3] is 100 % of control and 98 % of control.
As for `c1ccc2sc(SSN3CC4CCC(CC4)C3)nc2c1`, the T/C runs as follows: under setting [5], 102 % of control; under setting [6], 107 % of control; under setting [7], 123 % of control; under setting [14], 115 % of control.
Turning to `COC12C(COC(N)=O)C3=C(C(=O)C(C)=C(N4CC4)C3=O)N1CC1NC12` (stereo unspecified), the T/C by setting is: (dose: 0.13 mg/kg/injection, schedule: Q04DX003 (ip), vehicle: saline sonified) 154 % of control; (dose: 0.25 mg/kg/injection, schedule: Q04DX003 (ip), vehicle: saline sonified) 163 % of control; (dose: 0.33 mg/kg/injection, schedule: Q04DX003 (ip), vehicle: saline with Tween-80) 91 % of control; (dose: 0.5 mg/kg/injection, schedule: Q04DX003 (ip), vehicle: saline sonified) 181 % of control; (dose: 0.75 mg/kg/injection, schedule: Q04DX003 (ip), vehicle: saline with Tween-80) 87 % of control.
Regarding `O=C1C=C(NCc2nc3ccccc3[nH]2)C(c2ccccc2)N1c1ccccc1` (stereo unspecified), the T/C is 100 % of control under setting [11], 96 % of control under setting [12] and 93 % of control under setting [13].
On to `CCOCC(=O)[C@]1(O)Cc2c(O)c3c(c(O)c2[C@@H](OC2CC(N)C(O)C(C)O2)C1)C(=O)c1c(OC)cccc1C3=O` (stereo partly specified), for which the T/C is, setting by setting: (dose: 1.56 mg/kg/injection, schedule: Q01DX009 (ip), vehicle: water) 153 % of control; (dose: 3.13 mg/kg/injection, schedule: Q01DX009 (ip), vehicle: water) 158 % of control and 163 % of control.
Turning to `O=C(N=Nc1c(Cl)c(O)c2ccccc2c1O)c1ccccc1O`, the T/C reads like this: under setting [4], 100 % of control; under setting [5], 108 % of control; under setting [6], 106 % of control; under setting [7], 104 % of control and 115 % of control.
